Measured values taken from ChEMBL document CHEMBL2177034, “Inhibition of hypoxia inducible factor-2 transcription: isolation of active modulators from marine sponges” (J Nat Prod, 2012).
Active and inactive are the calls of the source. No cut-off for these calls is given here.

Tests used:
[1] = molecular target: T1, Endothelial PAS domain-containing protein 1 (Homo sapiens, UniProt Q99814); assay: Inhibition of HIF2alpha in human 786-0 cells expressing truncated HIF1alpha assessed as reduction in luciferase activity after 24 hrs by reporter gene assay; assay type: cell-based
[2] = Downregulation of HIF2alpha mRNA expression in human SK-RC-28 cells after 48 hrs by RT-PCR analysis; assay type: functional, cell-based
[3] = Downregulation of HIF1alpha mRNA expression in human SK-RC-28 cells after 48 hrs by RT-PCR analysis; assay type: functional, cell-based
[4] = Downregulation of CCND1 mRNA expression in human SK-RC-28 cells after 48 hrs by RT-PCR analysis; assay type: functional, cell-based
[5] = Downregulation of GLUT1 mRNA expression in human SK-RC-28 cells after 48 hrs by RT-PCR analysis; assay type: functional, cell-based
[6] = Downregulation of TGFalpha mRNA expression in human SK-RC-28 cells after 48 hrs by RT-PCR analysis; assay type: functional, cell-based
[7] = molecular target: Hypoxia-inducible factor 1-alpha (Homo sapiens) (UniProt Q16665); assay: Inhibition of HIF1alpha in human SK-RC-28 cells assessed as reduction in VEGFA after 48 hrs by RT-PCR analysis; assay type: cell-based
[8] = molecular target: Hypoxia-inducible factor 1-alpha (Homo sapiens) (UniProt Q16665); assay: Inhibition of HIF1alpha in human SK-RC-28 cells assessed as reduction in carbonic anhydrase 9 expression after 48 hrs by RT-PCR analysis; assay type: cell-based
[9] = Downregulation of HIF2alpha mRNA expression in human RCC4 cells after 48 hrs by RT-PCR analysis; assay type: functional, cell-based
[10] = Downregulation of HIF1alpha mRNA expression in human RCC4 cells after 48 hrs by RT-PCR analysis; assay type: functional, cell-based
[11] = molecular target: Hypoxia inducible factors; HIF-1-alpha, HIF-2-alpha (Homo sapiens) (UniProt Q16665+Q99814); assay: Inhibition of HIF1alpha/2alpha in human RCC4 cells assessed as reduction in VEGFA mRNA expression after 48 hrs by RT-PCR analysis; assay type: cell-based
[12] = molecular target: T1, Endothelial PAS domain-containing protein 1; assay: Inhibition of HIF2alpha in human RCC4 cells coexpressing HIF1alpha assessed as reduction in CCND1 mRNA expression after 48 hrs by RT-PCR analysis; assay type: cell-based
[13] = molecular target: T1, Endothelial PAS domain-containing protein 1; assay: Inhibition of HIF2alpha in human RCC4 cells coexpressing HIF1alpha assessed as reduction in GLUT1 mRNA expression after 48 hrs by RT-PCR analysis; assay type: cell-based
[14] = molecular target: T1, Endothelial PAS domain-containing protein 1; assay: Inhibition of HIF2alpha in human RCC4 cells coexpressing HIF1alpha assessed as reduction in TGFalpha mRNA expression after 48 hrs by RT-PCR analysis; assay type: cell-based
[15] = molecular target: Hypoxia-inducible factor 1-alpha (Homo sapiens) (UniProt Q16665); assay: Inhibition of HIF1alpha in human RCC4 cells coexpressing HIF2alpha assessed as decrease in carbonic anhydrase 9 mRNA expression after 48 hrs by RT-PCR analysis; assay type: cell-based
786-0 [16] = assay: Downregulation of HIF2alpha mRNA expression in human 786-0 cells after 48 hrs by RT-PCR analysis; assay type: functional, cell-based
786-0 [17] = assay: Downregulation of HIF1alpha mRNA expression in human 786-0 cells after 48 hrs by RT-PCR analysis; assay type: functional, cell-based
[18] = molecular target: T1, Endothelial PAS domain-containing protein 1; assay: Inhibition of HIF2alpha in human 786-0 cells assessed as reduction in VEGFA after 48 hrs by RT-PCR analysis; assay type: cell-based
[19] = molecular target: T1, Endothelial PAS domain-containing protein 1; assay: Inhibition of HIF2alpha in human 786-0 cells assessed as reduction in CCND1 mRNA expression after 48 hrs by RT-PCR analysis; assay type: cell-based
[20] = molecular target: T1, Endothelial PAS domain-containing protein 1; assay: Inhibition of HIF2alpha in human 786-0 cells assessed as reduction in GLUT1 mRNA expression after 48 hrs by RT-PCR analysis; assay type: cell-based
[21] = molecular target: T1, Endothelial PAS domain-containing protein 1; assay: Inhibition of HIF2alpha in human 786-0 cells assessed as reduction in TGFalpha mRNA expression after 48 hrs by RT-PCR analysis; assay type: cell-based
786-0 [22] = assay: Down regulation of carbonic anhydrase 9 expression in human 786-0 cells after 48 hrs by RT-PCR analysis; assay type: functional, cell-based

T1 sequence (Q99814 whole entry, the tested form may be a part): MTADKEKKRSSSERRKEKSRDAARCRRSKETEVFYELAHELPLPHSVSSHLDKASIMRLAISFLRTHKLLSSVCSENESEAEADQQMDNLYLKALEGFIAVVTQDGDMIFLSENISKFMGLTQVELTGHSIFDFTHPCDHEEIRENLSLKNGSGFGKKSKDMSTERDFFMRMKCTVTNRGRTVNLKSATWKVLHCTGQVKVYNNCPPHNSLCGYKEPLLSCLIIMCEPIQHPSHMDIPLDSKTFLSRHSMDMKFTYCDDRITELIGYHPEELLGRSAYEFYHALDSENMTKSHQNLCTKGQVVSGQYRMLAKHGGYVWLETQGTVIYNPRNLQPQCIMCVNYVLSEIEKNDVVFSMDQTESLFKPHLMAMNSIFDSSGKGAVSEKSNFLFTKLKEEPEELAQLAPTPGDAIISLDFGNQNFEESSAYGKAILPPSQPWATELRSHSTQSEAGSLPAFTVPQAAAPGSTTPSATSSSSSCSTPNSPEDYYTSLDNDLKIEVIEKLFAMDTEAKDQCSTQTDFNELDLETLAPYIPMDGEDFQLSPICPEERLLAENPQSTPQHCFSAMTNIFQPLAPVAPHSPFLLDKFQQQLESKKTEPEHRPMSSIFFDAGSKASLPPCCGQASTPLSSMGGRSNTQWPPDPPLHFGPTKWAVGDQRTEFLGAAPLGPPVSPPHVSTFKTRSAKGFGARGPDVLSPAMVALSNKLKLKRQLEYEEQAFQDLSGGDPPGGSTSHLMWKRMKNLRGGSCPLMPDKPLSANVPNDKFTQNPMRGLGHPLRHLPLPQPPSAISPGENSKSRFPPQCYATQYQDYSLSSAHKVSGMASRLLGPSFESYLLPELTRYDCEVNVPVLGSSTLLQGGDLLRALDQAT
Hypoxia-inducible factor 1-alpha (Homo sapiens), sequence (Q16665 whole entry, looked up): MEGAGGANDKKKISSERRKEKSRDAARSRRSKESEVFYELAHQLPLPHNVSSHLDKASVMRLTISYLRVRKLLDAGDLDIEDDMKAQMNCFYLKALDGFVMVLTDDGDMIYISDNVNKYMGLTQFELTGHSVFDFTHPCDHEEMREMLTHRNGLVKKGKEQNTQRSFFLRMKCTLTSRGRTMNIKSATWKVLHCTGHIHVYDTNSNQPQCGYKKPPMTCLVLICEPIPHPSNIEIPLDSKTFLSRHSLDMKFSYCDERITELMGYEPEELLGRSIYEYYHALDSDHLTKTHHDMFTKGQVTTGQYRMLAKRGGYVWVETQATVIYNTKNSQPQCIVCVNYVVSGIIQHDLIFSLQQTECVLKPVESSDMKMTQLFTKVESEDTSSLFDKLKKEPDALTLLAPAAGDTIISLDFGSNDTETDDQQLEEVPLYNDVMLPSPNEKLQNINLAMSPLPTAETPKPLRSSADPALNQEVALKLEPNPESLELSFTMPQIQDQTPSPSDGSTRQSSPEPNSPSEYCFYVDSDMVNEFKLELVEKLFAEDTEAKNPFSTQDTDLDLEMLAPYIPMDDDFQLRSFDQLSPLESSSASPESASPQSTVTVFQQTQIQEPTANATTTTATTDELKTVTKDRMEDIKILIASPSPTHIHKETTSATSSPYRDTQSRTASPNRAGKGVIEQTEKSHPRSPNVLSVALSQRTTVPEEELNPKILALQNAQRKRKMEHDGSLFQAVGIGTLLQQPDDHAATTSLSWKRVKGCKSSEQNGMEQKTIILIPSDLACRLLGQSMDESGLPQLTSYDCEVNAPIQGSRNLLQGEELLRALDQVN

Structure (SMILES): C/C=C(/C)C(=O)OCc1nccc2c1C(=O)C(O)=C(C)C2=O
- EC50 [1]: > 100 µM
- Activity [2]: inactive
- Activity [3]: inactive
- Activity [4]: inactive
- Activity [5]: inactive
- Activity [6]: inactive
- inhibition [7]: inactive
- inhibition [8]: inactive
- Activity [9]: inactive
- Activity [10]: inactive
- inhibition [11]: inactive
- inhibition [12]: inactive
- inhibition [13]: inactive
- inhibition [14]: inactive
- inhibition [15]: inactive
- Activity (786-0 [16]): inactive
- Activity (786-0 [17]): inactive
- inhibition [18]: inactive
- inhibition [19]: inactive
- inhibition [20]: inactive
- inhibition [21]: inactive
- Activity (786-0 [22]): inactive

Structure (SMILES): CC(=O)OC[C@]12CCCC(C)(C)[C@@H]1CC[C@]1(C)[C@@H]2C[C@H]2OC(=O)[C@H]3[C@H](C(C)=O)[C@@H](O)C[C@@H]1[C@]23C
- EC50 [1]: > 100 µM

Structure (SMILES): CC(=O)O[C@H]1C[C@H]2[C@@](C)(CC[C@H]3C(C)(C)CCC[C@@]32C=O)[C@@H]2CC=C(C(C)=O)[C@H](C=O)[C@@]12C
- EC50 [1]: 4.2 µM

Structure (SMILES): COc1cc2ccnc3c2c(c1OC)NC=C3 [AAPTAMINE]
- EC50 [1]: > 100 µM
